# Results from patent US10918642B2, “N-(substituted-phenyl)-sulfonamide derivatives as kinase inhibitors” (Nerviano Medical Sciences S.R.L., priority 2016, dated 2021).
# Target: PERK recombinant enzyme (cytoplasmic domain corresponding to residues 540-1115) (Homo sapiens (Human), UniProt Q9NZJ5)
# Assay: PERK enzyme assay, Method 1: ADP-Glo Kinase Assay (quantification of ADP formed)
# Type: biochemical
# Conditions: 52 microM ATP, 8 nM PERK, 300 microM eIF2alpha peptide substrate, 60 minutes at room temperature
# Experimental: The biochemical activity of compounds was determined by incubation with PERK recombinant enzyme (cytoplasmic domain corresponding to residues 540-1115) and elF2alpha peptide substrate (Aminoacid sequence: LLSELSRRRIRSINK—SEQ ID Nr: 1; purchased from American Peptide Company, product #341923). This was followed by:
# Method 1: Quantification of the ADP Tormed from the Kinase Reaction by ADP-Glo™ Kinase Assay (Promega Cat. 9102). Utra Pure ATP was Included into ADP-Glo™ Kinase Assay kit.
# Compounds were 3-fold serially diluted in order to obtain from 3.333 to 0.000169 microM final concentration, then incubated for 60 minutes at room temperature in the presence of ATP, substrate and enzyme in a final volume of 15 microL of kinase buffer in 384-well plates (Perkin Elmer cat. #6007290).
# The final concentration of the different reagents is 52 microM ATP, 8 nM PERK, 300 microM substrate, 50 mM Hepes pH 7.5, 3 mM MgCl2, 1 mM DTT, 3 microM Na3VO4, 0.2 mg/ml BSA, 1% DMSO.
# After 60 minutes, an equal volume (15 microL) of ADP-Glo™ Reagent was added to each well to terminate the kinase reaction and deplete the remaining ATP. After 40 minutes, 30 microL of Kinase Detection Reagent is added, which simultaneously converts ADP to ATP and allows the newly synthesized ATP to be measured using a coupled luciferase/luciferin reaction. After further 40 minutes luminescence was read by ViewLux Instrument (Perkin Elmer). The data are analyzed by GraphPad Prism software which provides sigmoidal fittings of the curves for IC50 determination using a 4 parameter logistic equation: y=bottom+(top−bottom)/(1+10^((log IC50−x)*slope))
# where x is the logarithm of the inhibitor concentration, y is the response; y starts at bottom and goes to top with a sigmoid shape.
# PERK recombinant enzyme (cytoplasmic domain corresponding to residues 540-1115), sequence (Q9NZJ5 540-1115): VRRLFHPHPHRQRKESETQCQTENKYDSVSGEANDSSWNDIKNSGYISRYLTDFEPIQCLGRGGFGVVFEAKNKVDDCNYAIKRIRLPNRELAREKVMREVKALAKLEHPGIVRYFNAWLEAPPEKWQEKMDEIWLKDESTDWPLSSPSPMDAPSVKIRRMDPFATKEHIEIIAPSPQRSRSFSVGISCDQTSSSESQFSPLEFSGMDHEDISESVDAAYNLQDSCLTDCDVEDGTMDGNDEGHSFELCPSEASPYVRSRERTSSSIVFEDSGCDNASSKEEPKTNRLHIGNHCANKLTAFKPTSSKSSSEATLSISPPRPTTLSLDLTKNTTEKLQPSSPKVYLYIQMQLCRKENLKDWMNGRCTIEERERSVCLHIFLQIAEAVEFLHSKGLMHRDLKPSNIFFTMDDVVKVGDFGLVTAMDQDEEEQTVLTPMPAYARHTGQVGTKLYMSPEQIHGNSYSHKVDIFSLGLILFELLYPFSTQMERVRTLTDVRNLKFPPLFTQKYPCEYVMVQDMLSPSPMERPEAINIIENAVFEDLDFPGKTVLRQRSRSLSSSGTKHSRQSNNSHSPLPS
SMILES,pIC50,IC50
"COc1cc(F)c(S(=O)(=O)Nc2cccc(-c3cn(C)c4ncnc(N)c34)c2F)cc1C [cmpd 44, N-[3-(4-Amino-7-methyl-7H-pyrrolo[2,3-d]pyrimidin-5-yl)-2-fluoro-phenyl]-2-fluoro-4-methoxy-5-methyl-benzenesulfonamide]",AA (7.8 ≤ pIC50),
"COc1c(C)cc(S(=O)(=O)Nc2cccc(-c3cn(C)c4ncnc(N)c34)c2F)cc1C [cmpd 29, N-[3-(4-Amino-7-methyl-7H-pyrrolo[2,3-d]pyrimidin-5-yl)-2-fluoro-phenyl]-4-methoxy-3,5-dimethyl-benzenesulfonamide]",,15.8 to 50.1 nM
"COc1ccc(S(=O)(=O)Nc2cccc(-c3cn(C(C)C)c4ncnc(N)c34)c2F)cc1Cl [cmpd 2, N-[3-(4-Amino-7-isopropyl-7H-pyrrolo[2,3-d]pyrimidin-5-yl)-2-fluoro-phenyl]-3-chloro-4-methoxy-benzenesulfonamide]",AA (7.8 ≤ pIC50),
"COc1ccc(S(=O)(=O)Nc2cccc(-c3nn(C)c4ncnc(N)c34)c2F)cc1Cl [cmpd 35, N-[3-(4-Amino-1-methyl-1H-pyrazolo[3,4-d]pyrimidin-3-yl)-2-fluoro-phenyl]-3-chloro-4-methoxy-benzenesulfonamide]",AA (7.8 ≤ pIC50),
"COc1ccc(S(=O)(=O)Nc2cccc(-c3cn(C4CCNCC4)c4ncnc(N)c34)c2F)cc1C [cmpd 64, N-[3-(4-Amino-7-piperidin-4-yl-7H-pyrrolo[2,3-d]pyrimidin-5-yl)-2-fluoro-phenyl]-4-methoxy-3-methyl-benzenesulfonamide]",,15.8 to 50.1 nM
"Cn1cc(-c2cccc(NS(=O)(=O)c3ccc(Cl)c(Cl)c3)c2F)c2c(N)ncnc21 [cmpd 25, N-[3-(4-Amino-7-methyl-7H-pyrrolo[2,3-d]pyrimidin-5-yl)-2-fluoro-phenyl]-3,4-dichloro-benzenesulfonamide]",,15.8 to 50.1 nM
"COc1ccc(S(=O)(=O)Nc2cccc(-c3cn(C4CCN(C)CC4)c4ncnc(N)c34)c2F)cc1C [cmpd 38, N-{3-[4-Amino-7-(1-methyl-piperidin-4-yl)-7H-pyrrolo[2,3-d]pyrimidin-5-yl]-2-fluoro-phenyl}-4-methoxy-3-methyl-benzenesulfonamide]",AA (7.8 ≤ pIC50),
"COc1ccc(S(=O)(=O)Nc2cccc(-c3nn(C)c4ncnc(N)c34)c2F)cc1C [cmpd 34, N-[3-(4-Amino-1-methyl-1H-pyrazolo[3,4-d]pyrimidin-3-yl)-2-fluoro-phenyl]-4-methoxy-3-methyl-benzenesulfonamide]",,15.8 to 50.1 nM
"COc1ccc(S(=O)(=O)Nc2cccc(-c3cn(C4CCN(C(C)C)CC4)c4ncnc(N)c34)c2F)cc1Cl [cmpd 6, N-{3-[4-Amino-7-(1-isopropyl-piperidin-4-yl)-7H-pyrrolo[2,3-d]pyrimidin-5-yl]-2-fluoro-phenyl}-3-chloro-4-methoxy-benzenesulfonamide]",AA (7.8 ≤ pIC50),
"COc1cc(F)c(S(=O)(=O)Nc2cccc(-c3cn(C4CCN(C)CC4)c4ncnc(N)c34)c2F)cc1Cl [cmpd 3, N-{3-[4-Amino-7-(1-methyl-piperidin-4-yl)-7H-pyrrolo[2,3-d]pyrimidin-5-yl]-2-fluoro-phenyl}-5-chloro-2-fluoro-4-methoxy-benzenesulfonamide]",AA (7.8 ≤ pIC50),

# Further lines, results first:
pIC50,IC50,SMILES
C (pIC50 < 6.8),,"Cn1cc(-c2cccc(NS(=O)(=O)c3ccc(O)c(Cl)c3)c2F)c2c(N)ncnc21 [cmpd 67, N-[3-(4-Amino-7-methyl-7H-pyrrolo[2,3-d]pyrimidin-5-yl)-2-fluoro-phenyl]-3-chloro-4-hydroxy-benzenesulfonamide]"
AA (7.8 ≤ pIC50),,"Cn1cc(-c2cccc(NS(=O)(=O)c3cc(F)c(Br)cc3F)c2F)c2c(N)ncnc21 [cmpd 46, N-[3-(4-Amino-7-methyl-7H-pyrrolo[2,3-d]pyrimidin-5-yl)-2-fluoro-phenyl]-4-bromo-2,5-difluoro-benzenesulfonamide]"
,15.8 to 50.1 nM,"Cn1cc(-c2cccc(NS(=O)(=O)c3ccc([N+](=O)[O-])cc3)c2F)c2c(N)ncnc21 [cmpd 19, N-[3-(4-Amino-7-methyl-7H-pyrrolo[2,3-d]pyrimidin-5-yl)-2-fluoro-phenyl]-4-nitro-benzenesulfonamide]"
,15.8 to 50.1 nM,"Cn1cc(-c2cccc(NS(=O)(=O)c3cc(F)c(F)c(F)c3)c2F)c2c(N)ncnc21 [cmpd 32, N-[3-(4-Amino-7-methyl-7H-pyrrolo[2,3-d]pyrimidin-5-yl)-2-fluoro-phenyl]-3,4,5-trifluoro-benzenesulfonamide]"
,50.1 to 158 nM,"Cn1cc(-c2cccc(NS(=O)(=O)c3ccc(C(F)(F)F)cc3)c2F)c2c(N)ncnc21 [cmpd 15, N-[3-(4-Amino-7-methyl-7H-pyrrolo[2,3-d]pyrimidin-5-yl)-2-fluoro-phenyl]-4-trifluoromethyl-benzenesulfonamide]"
,50.1 to 158 nM,"COc1cc(F)c(S(=O)(=O)Nc2cccc(-c3csc4ccnc(N)c34)c2F)cc1Cl [cmpd 59, N-[3-(4-Amino-thieno[3,2-c]pyridin-3-yl)-2-fluoro-phenyl]-5-chloro-2-fluoro-4-methoxy-benzenesulfonamide]"
,15.8 to 50.1 nM,"CCOc1ccc(S(=O)(=O)Nc2cccc(-c3cn(C)c4ncnc(N)c34)c2F)cc1C [cmpd 28, N-[3-(4-Amino-7-methyl-7H-pyrrolo[2,3-d]pyrimidin-5-yl)-2-fluoro-phenyl]-4-ethoxy-3-methyl-benzenesulfonamide]"
,15.8 to 50.1 nM,"Cn1cc(-c2cccc(NS(=O)(=O)c3cnc(Cl)c(Br)c3)c2F)c2c(N)ncnc21 [cmpd 33, 5-Bromo-6-chloro-pyridine-3-sulfonic acid [3-(4-amino-7-methyl-7H-pyrrolo[2,3-d]pyrimidin-5-yl)-2-fluoro-phenyl]-amide]"
,15.8 to 50.1 nM,"Cn1cc(-c2cccc(NS(=O)(=O)c3ccc(Br)c(C(F)(F)F)c3)c2F)c2c(N)ncnc21 [cmpd 51, N-[3-(4-Amino-7-methyl-7H-pyrrolo[2,3-d]pyrimidin-5-yl)-2-fluoro-phenyl]-4-bromo-3-trifluoromethyl-benzenesulfonamide]"
AA (7.8 ≤ pIC50),,"Cn1cc(-c2cccc(NS(=O)(=O)c3ccc4c(c3)CCO4)c2F)c2c(N)ncnc21 [cmpd 27, 2,3-Dihydro-benzofuran-5-sulfonic acid [3-(4-amino-7-methyl-7H-pyrrolo[2,3-d]pyrimidin-5-yl)-2-fluoro-phenyl]-amide]"
,15.8 to 50.1 nM,"CCn1cc(-c2cccc(NS(=O)(=O)c3cc(Cl)c(OC)cc3F)c2F)c2c(N)ncnc21 [cmpd 75, N-[3-(4-Amino-7-ethyl-7H-pyrrolo[2,3-d]pyrimidin-5-yl)-2-fluoro-phenyl]-5-chloro-2-fluoro-4-methoxy-benzenesulfonamide]"
,50.1 to 158 nM,"COc1cc(F)c(S(=O)(=O)Nc2cccc(-c3cn(C4CCOCC4)c4ncnc(N)c34)c2F)cc1Cl [cmpd 76, N-{3-[4-Amino-7-(tetrahydro-pyran-4-yl)-7H-pyrrolo[2,3-d]pyrimidin-5-yl]-2-fluoro-phenyl}-5-chloro-2-fluoro-4-methoxy-benzenesulfonamide]"
AA (7.8 ≤ pIC50),,"Cc1cc(S(=O)(=O)Nc2cccc(-c3cn(C)c4ncnc(N)c34)c2F)ccc1Br [cmpd 52, N-[3-(4-Amino-7-methyl-7H-pyrrolo[2,3-d]pyrimidin-5-yl)-2-fluoro-phenyl]-4-bromo-3-methyl-benzenesulfonamide]"
,15.8 to 50.1 nM,"Cn1cc(-c2cccc(NS(=O)(=O)c3ccc(Cl)s3)c2F)c2c(N)ncnc21 [cmpd 47, 5-Chloro-thiophene-2-sulfonic acid [3-(4-amino-7-methyl-7H-pyrrolo[2,3-d]pyrimidin-5-yl)-2-fluoro-phenyl]-amide]"
